Assay results as given in patent US4983582A, “Preventive and therapeutic method for hypertension” (Kao Corporation, priority 1987, dated 1991).
“Also recorded” adds a separate entry of the source.

Columns and labels:
SHR-rat [1] = assay: Example 2: systolic blood pressure in the SHR, tail artery, closed method, 15 weeks administration; assay type: in vivo; conditions: for Systolic blood pressure in the SHR: average, n = 10
Description: To each group comprising 10 male SHR at the age of 9 weeks was dosed average 30 ml/day of the following aqueous solutions for 15 weeks; an aqueous solution of glucose-1-phosphate calcium (1 g/100 ml) represented by the structural formula (a), an aqueous solution of calcium lactate (0.83 g/100 ml), and an aqueous solution of hydrochlorothiazide (0.093 g/100 ml), which is one of the thiazide diuretics, while to a control group was dosed distilled water.
Systolic blood pressure was measured in a closed method in the tail artery of the subject at each time of before administration, 5 weeks of administration, and 15 weeks of administration (the measuring apparatus employed was PS-200 of Rikenkaihatsu Co.).

SHR-rat [2] = assay: Example 1: systolic blood pressure of SHR-rat at tail, 3 months oral administration; assay type: in vivo; conditions: 3 ml/day per orally, average, n = 10
Description: To each group comprising 10 male SHR of approx. 300 g of the body weight was per orally dosed 3 ml/day of the following aqueous solutions for 3 months;
an aqueous solution of glucose-1-phosphate calcium (2 g/100 ml) represented by the structural formula (a), and
an aqueous solution of glucose-1-phosphate calcium containing compounds of the general formulas (a) and (b) in the weight ratio of 9:1,
while to a control group was given distilled water.
The systolic blood pressure was measured at the tail of each subject, every one, two and three months of the administration period.

[3] = acute toxicity on peroral dosing to a mouse; conditions: in vivo, po, perorally, read-out: peroral dose at which it exhibits an acute toxicity
[4] = Japanese Patent Publication No. 46-7599 for dental caries; cited from earlier work
[5] = 5 weeks after, average 30 ml/day, glucose-1-phosphate calcium 1 g/100 ml, calcium lactate 0.83 g/100 ml, hydrochlorothiazide 0.093 g/100 ml, control 203
[6] = 15 weeks after, average 30 ml/day, glucose-1-phosphate calcium 1 g/100 ml, calcium lactate 0.83 g/100 ml, hydrochlorothiazide 0.093 g/100 ml, control 211
[7] = before administration, control 197

SMILES	Systolic blood pressure in the SHR (SHR-rat [1]; [5])	Systolic blood pressure in the SHR (SHR-rat [1]; [6])	Systolic blood pressure in the SHR (SHR-rat [1]; [7])	Systolic blood pressure of SHR-rat at tail (SHR-rat [2]; 1 month, control 150)	Systolic blood pressure of SHR-rat at tail (SHR-rat [2]; 2 months, control 187)	Systolic blood pressure of SHR-rat at tail (SHR-rat [2]; 3 months, control 215)	reduction of the systolic blood pressure of SHR-rat compared with hydrochlorothiazide (SHR-rat [1]; SHR-rat, Table 2)	LD50 [3] [mg/kg]	physiological effects already reported [4]
NS(=O)(=O)c1cc2c(cc1Cl)NCNS2(=O)=O [Hydrochlorothiazide, hydrochlorothiazide]	175	188	200	–	–	–	–	–	–
CC(O)C(=O)O (stereo not drawn) [Calcium lactate, calcium lactate]	190	204	198	–	–	–	–	–	–
O=P(O)(O)OC1O[C@H](CO)[C@@H](O)[C@H](O)[C@H]1O (stereo partly drawn) [Glucose-1-phosphate calcium (a), glucose-1-phosphate calcium]	175	185	199	148	153	155	–	–	–
O=P(O)(O)OC1O[C@H](CO)[C@@H](O)[C@H](O)[C@H]1O (stereo partly drawn) [glucose-1-phosphate calcium]	–	–	–	–	–	–	substantially in the same extent as hydrochlorothiazide	≥ 15000	effect of inhibiting dental caries; also recorded: cartilage-calcification promotion effect; also recorded: fatigue-recuperation effect
